In ChEMBL document CHEMBL1201862, “PubChem BioAssay data set” (2004):
Calls of active or inactive are those of the source. For most assays here, no stated cut-off is given here; in the data, actives have a measured EC50 and inactives only a lower limit.

Assays:
[1] = Luminescence Cell-Based Dose Response HTS to Identify Activators of Luciferase Translation or Activity in H4 […] Cells. [Related pubchem assays: 1829 (Project Summary), 1814 (Primary HTS)]; type: functional
[2] = Luminescence Cell-Based Dose Confirmation HTS to Identify Activators of 5'UTR Stem-Loop Driven Alpha-Synuclein mRNA Translation in H4 Neuroglioblastoma Cells. [Related pubchem assays: 1829 (Project Summary), 1814 (Primary HTS)]; type: functional
H4 = experiment: Luminescence Cell-Based Dose Response HTS to Identify Activators of 5'UTR Stem-Loop Driven Prion Protein mRNA Translation in H4 Neuroglioblastoma Cells. [Related pubchem assays: 1829 (Project Summary), 1814 (Primary HTS)]; type: functional; settings: Homo sapiens
[3] = viability of uninfected HEp-2 cells – cell-based, HTS, cytotoxicity control for RSV inhibitor project, dose response (AID 2410); type: functional; settings: human respiratory syncytial virus
[4] = alpha-synuclein stem-loop luciferase translation blockers – H4 neuroglioma cells, luminescence, confirmation (AID 1988); type: functional, cell-based
[5] = luciferase reporter signal suppression in cells – H4 neuroglioma cells, luminescence, dose response (AID 1990); type: functional, cell-based
Streptokinase A = biological target: T1, Streptokinase A (Streptococcus pyogenes serotype M1, UniProt P10520); experiment: viability-normalized secreted streptokinase activity reduction – plasminogen activation absorbance, OD405, dose response (AID 1914); type: functional, Streptococcus pyogenes M1 GAS;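 further: secreted streptokinase activity via plasminogen activation per viability signal from cell pellet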
T1 sequence (P10520 whole entry): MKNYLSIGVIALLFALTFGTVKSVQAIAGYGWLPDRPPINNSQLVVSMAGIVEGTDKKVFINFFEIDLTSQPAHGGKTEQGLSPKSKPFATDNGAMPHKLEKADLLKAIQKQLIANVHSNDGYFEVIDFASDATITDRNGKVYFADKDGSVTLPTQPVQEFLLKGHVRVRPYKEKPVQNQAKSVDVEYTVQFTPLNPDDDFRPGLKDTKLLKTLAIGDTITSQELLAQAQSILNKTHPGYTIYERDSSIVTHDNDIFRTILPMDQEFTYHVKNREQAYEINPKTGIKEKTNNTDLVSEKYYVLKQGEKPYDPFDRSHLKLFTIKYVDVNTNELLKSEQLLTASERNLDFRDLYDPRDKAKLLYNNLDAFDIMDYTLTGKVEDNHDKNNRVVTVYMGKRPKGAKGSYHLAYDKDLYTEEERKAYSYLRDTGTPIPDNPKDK

[6] = Luminescence Cell-Based Dose Response HTS to Identify Inhibitors of 5'UTR Stem-Loop Driven Prion Protein mRNA Translation in H4 Neuroglioblastoma Cells. [Related pubchem assays: 1827 (Project Summary), 1813 (Primary HTS)]; type: functional
[7] = system: Streptococcus sp. 'group A'; experiment: Streptococcus pyogenes SK(-)GAS viability under kanamycin – luminescence, BacTiterGlo, confirmation, counter-screen for streptokinase expression inhibitor project, dose response (AID 1900); type: functional, organism-based; settings: read-out: EC50
Streptococcus = experiment: GAS UMAA2166 growth inhibition – luminescence, BacTiterGlo, counter-screen for streptokinase expression inhibitor project, dose response (AID 1915); type: functional, organism-based;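 further: potency for reduction of bacterial viability or growth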
[8] = biological target: T2, Rac GTPase-activating protein 1 (Homo sapiens, UniProt Q9H0H5); experiment: blockers of MgcRacGAP-driven Rac1 GTP hydrolysis – biochemical, ADP Hunter fluorescence, primary and confirmatory, confirmation (AID 624330); type: functional
T2 sequence (Q9H0H5 whole entry): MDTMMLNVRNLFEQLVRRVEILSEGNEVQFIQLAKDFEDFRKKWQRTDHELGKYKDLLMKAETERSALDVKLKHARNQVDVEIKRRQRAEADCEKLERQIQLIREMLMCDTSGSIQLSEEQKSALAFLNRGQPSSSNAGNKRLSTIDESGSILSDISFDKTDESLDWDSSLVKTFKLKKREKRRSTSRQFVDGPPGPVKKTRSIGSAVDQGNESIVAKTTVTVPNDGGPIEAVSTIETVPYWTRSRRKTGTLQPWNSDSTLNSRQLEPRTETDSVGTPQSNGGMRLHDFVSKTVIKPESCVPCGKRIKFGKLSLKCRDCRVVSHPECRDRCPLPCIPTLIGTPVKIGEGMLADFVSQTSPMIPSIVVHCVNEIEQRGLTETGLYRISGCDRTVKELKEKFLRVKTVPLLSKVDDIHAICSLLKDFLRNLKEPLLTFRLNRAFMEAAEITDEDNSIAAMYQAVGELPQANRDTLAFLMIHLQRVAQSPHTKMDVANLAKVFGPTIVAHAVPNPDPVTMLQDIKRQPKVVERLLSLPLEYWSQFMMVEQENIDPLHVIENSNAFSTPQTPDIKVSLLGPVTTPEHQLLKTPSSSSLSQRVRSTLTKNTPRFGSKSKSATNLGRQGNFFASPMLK

INS1 = experiment: INS-1E survival protection against cytokine death – cell-based, luminescence, retest, dose response (AID 449756); type: functional; settings: Rattus norvegicus;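 further: cell death triggered by IL-1 beta plus TNF-alpha plus IFN-gamma mixture; protective hits raise ATP signal compared with cytokine alone wells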
[9] = Luminescence Cell-Based Dose Retest to Confirm Inhibitors of Cancer Stem Cells. [Related pubchem assays (depositor defined):AID2717, AID2721]; type: functional, Homo sapiens; settings: Homo sapiens
Paired box protein Pax-8 = Paired box protein Pax-8 (Homo sapiens, UniProt Q06710); experiment: PAX8 transcriptional activity inhibition in RMG-I – RMG-I cells, luciferase, cherry-pick, dose response (AID 687027); type: functional, cell-based;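 further: luciferase reporter driven by Pax8 target thyroperoxidase promoter measured by SteadyGlo luminescence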
Paired box protein Pax-8, sequence (Q06710 whole entry): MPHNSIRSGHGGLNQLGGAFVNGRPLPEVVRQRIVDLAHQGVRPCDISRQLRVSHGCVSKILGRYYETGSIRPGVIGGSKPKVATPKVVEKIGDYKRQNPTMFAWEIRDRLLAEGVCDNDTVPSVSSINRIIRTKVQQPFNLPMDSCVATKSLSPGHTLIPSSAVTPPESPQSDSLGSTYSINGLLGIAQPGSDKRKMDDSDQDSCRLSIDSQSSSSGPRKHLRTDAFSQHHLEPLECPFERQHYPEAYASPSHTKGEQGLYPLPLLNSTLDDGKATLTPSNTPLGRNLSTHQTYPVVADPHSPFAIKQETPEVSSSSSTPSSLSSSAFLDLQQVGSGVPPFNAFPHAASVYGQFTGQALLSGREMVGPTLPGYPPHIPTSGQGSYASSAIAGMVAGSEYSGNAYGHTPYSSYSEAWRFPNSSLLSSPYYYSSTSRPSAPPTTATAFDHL

Cytochrome P450 2C9 = Cytochrome P450 2C9 (Homo sapiens, UniProt P11712)
Cytochrome P450 2C9, sequence (P11712 whole entry): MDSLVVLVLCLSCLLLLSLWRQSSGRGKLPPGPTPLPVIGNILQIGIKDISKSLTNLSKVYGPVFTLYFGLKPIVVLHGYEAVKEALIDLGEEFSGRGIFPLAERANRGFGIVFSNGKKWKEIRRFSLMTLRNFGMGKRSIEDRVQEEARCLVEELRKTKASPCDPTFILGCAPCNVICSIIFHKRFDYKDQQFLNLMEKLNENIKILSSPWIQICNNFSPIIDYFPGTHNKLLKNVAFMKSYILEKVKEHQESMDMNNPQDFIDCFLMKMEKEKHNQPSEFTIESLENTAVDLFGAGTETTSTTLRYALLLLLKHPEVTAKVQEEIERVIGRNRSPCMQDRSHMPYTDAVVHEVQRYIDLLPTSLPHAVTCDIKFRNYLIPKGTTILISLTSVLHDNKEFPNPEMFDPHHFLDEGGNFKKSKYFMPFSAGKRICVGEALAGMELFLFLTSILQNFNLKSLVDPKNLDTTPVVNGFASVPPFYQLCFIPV

SMILES | EC50 [1] | EC50 [2] | EC50 (H4) | other results
COc1cccc(-c2nc(-c3ccc4c(c3)NC(=O)CO4)cs2)c1 | 22.7 µM (active) | 17.7 µM (active) | 10.8 µM (active) | –
Cc1cc2c(cc1C)CSC(c1ccccc1OC(=O)C(C)(C)C)SC2 | – | – | – | CC50 [3]: 16.8 µM (active)
COc1ccc(-c2cc(C(F)F)n3ncc(C(=O)N4CCc5ccccc5C4)c3n2)cc1 | – | – | – | CC50 [3]: 28.3 µM (active)
COc1ccc(-c2csc(NC(=O)c3ccc(C(C)(C)C)cc3)c2C(=O)O)cc1 | – | – | – | EC50 [4]: 11.5 µM (active); EC50 [5]: 14.5 µM (active); EC50 (Streptokinase A): 3.12 µM (inconclusive); EC50 [6]: 4.3 µM (active); EC50 [7]: 1.75 µM (active); EC50 (Streptococcus): 7.24 µM (active)
Cc1cnc(NC(=O)CCc2ccccc2)s1 | 16.6 µM (active) | > 120 µM (not active) | 15.2 µM (active) | –
CN1C(=O)C(=Cc2c(OCc3cnc(Cl)s3)ccc3ccccc23)C(=O)N(C)C1=O | – | – | – | CC50 [3]: 20.3 µM (active)
Cc1ccc2nc3ccc(N4CCCC4)nn3c(=O)c2c1 | 0.558 µM (active) | 0.723 µM (active) | > 120 µM (not active) | –
CC(C)(C)c1ccc(C(=O)N2CCN(C(=O)c3ccco3)CC2)cc1 | – | – | – | EC50 (Streptokinase A): > 150 µM (not active); EC50 [7]: > 150 µM (not active); EC50 (Streptococcus): > 150 µM (not active)
CCc1cc2c(=O)c(-c3ccc4c(c3)OCCO4)coc2cc1OC(=O)c1ccco1 | – | – | – | CC50 [3]: 29.9 µM (active)
O=c1cc(Cl)[nH]c(=O)n1CCNc1ncc(C(F)(F)F)cc1Cl | 5.68 µM (active) | 12.6 µM (active) | 7.52 µM (active) | –
Nc1cc(-c2ccc(Br)cc2)nn1S(=O)(=O)c1cccc2nsnc12 | – | – | – | CC50 [3]: 11.2 µM (active)
CSc1ccc(C2c3[nH]c4ccccc4c3CCN2C(=O)c2cc(C)n(C)n2)cc1 (stereo unspecified) | 17.1 µM (active) | 14.2 µM (active) | 11.8 µM (active) | –
COCC1CCN(C(=O)c2ccc3oc(Cc4ccccc4)nc3c2)C1 (stereo unspecified) | – | – | – | EC50 (Streptokinase A): > 150 µM (not active); EC50 [7]: > 150 µM (not active); EC50 (Streptococcus): > 150 µM (not active)
O=C(Nc1cccc(-c2cccc(Cl)c2)c1)C1CCN(Cc2ccc(CO)o2)CC1 | – | – | – | CC50 [3]: 12.7 µM (active)
Cc1ccc(-c2cn(-c3ccccc3)c(SCC(=O)NC3CCS(=O)(=O)C3)n2)cc1C (stereo unspecified) | 8.74 µM (active) | 1.36 µM (active) | 0.301 µM (active) | –
Cc1ccc(C(=O)NCCC(=O)N2CCCC2)cc1 | 5.97 µM (active) | 0.419 µM (active) | > 120 µM (not active) | –
O=C(CSc1nc(O)c2cnn(-c3ccccc3)c2n1)N1N=C(c2cccs2)CC1c1ccc(F)cc1 (stereo unspecified) | – | – | – | EC50 (Streptokinase A): > 150 µM (not active); EC50 [7]: 3.15 µM (active); EC50 (Streptococcus): 7.18 µM (active)
COc1ccccc1NC(=O)Cn1c(CN2CCCCC2)nc2ccccc2c1=O | > 120 µM (not active) | > 120 µM (not active) | 37.8 µM (active) | –
O=C(CSc1ncnc2sc3c(c12)CCCC3)c1ccccc1 | 9.61 µM (active) | 11.6 µM (active) | 28.8 µM (active) | –
CCc1ccc(CN(C)Cc2nc(-c3cccc(Cl)c3)no2)nc1 | – | – | – | EC50 (Streptokinase A): > 150 µM (not active); EC50 [7]: 18.4 µM (active); EC50 (Streptococcus): > 150 µM (not active)
Nc1ccc(C(=O)c2ccc3c(c2)OCCO3)cc1N | 8.7 µM (active) | 9.68 µM (active) | 21.2 µM (active) | IC50 [8]: 22.9 µM (active)

SMILES | EC50 [1] | EC50 [2] | EC50 (H4) | other results
CCCn1c(=N)c(C(=O)NC2CCCC2)cc2c(=O)n3cccc(C)c3nc21 | > 120 µM (not active) | > 120 µM (not active) | > 120 µM (not active) | –
O=C(NCc1cccnc1)c1ccc([N+](=O)[O-])cc1 | – | – | – | AC50 (INS1): 3.6 µM (active)
CC(=O)Nc1cccc(-n2nnc(SCC(=O)c3ccccc3)n2)c1 | 19.8 µM (active) | 10.5 µM (active) | 2.02 µM (active) | –
COc1ccc(Oc2nc(-c3ccccn3)nc3ccccc23)cc1 | – | – | – | EC50 (Streptokinase A): > 150 µM (not active); EC50 [7]: 17.1 µM (active); EC50 (Streptococcus): > 150 µM (not active)
Cc1ccc(F)c([C@H]2C3C=CCC(c4ccccc4)C3C(=O)N2Cc2ccccc2)c1 (stereo partly specified) | – | – | – | AC50 (INS1): 11 µM (active); AC50 [9]: 3.71 µM (active)
CC1CCN(C(C(=O)NC2CCCCC2)c2cc3c(cc2[N+](=O)[O-])OCO3)CC1 (stereo unspecified) | 25 µM (active) | > 120 µM (not active) | 22.1 µM (active) | –
c1ccc(Cn2c(-c3ccco3)nc3nc4ccccc4nc32)cc1 | 0.127 µM (inconclusive) | 11.6 µM (active) | > 120 µM (not active) | –
O=C(NCCSc1ccccc1)c1ccco1 | > 120 µM (not active) | – | 15 µM (active) | –
O=C(c1cc2ccccn2n1)N1CCN(Cc2ccccc2)CC1 | 24.1 µM (active) | 6.68 µM (active) | 9.44 µM (active) | –
O=C(Nc1ccc(N2CCN(C(=O)c3ccc(Cl)cc3)CC2)cc1)c1cccnc1 | – | – | – | AC50 (INS1): 5.43 µM (active)
Cc1cccc(Nc2nc(N)nc(CN3CCN(c4ccccc4F)CC3)n2)c1 | – | – | – | EC50 (Streptokinase A): > 150 µM (not active); EC50 [7]: 7.31 µM (active); EC50 (Streptococcus): 45.8 µM (active)
O=C(N/N=C/c1cc(Br)cs1)c1ccc2c(c1)OCCO2 | – | 0.106 µM (active) | > 120 µM (not active) | –
C[C@@H]1CCCCO[C@H](CN(C)Cc2ccc(C(F)(F)F)cc2)[C@H](C)CN([C@H](C)CO)C(=O)c2cc(NC(=O)Nc3ccc(F)cc3)ccc2O1 | – | – | – | AC50 (Paired box protein Pax-8): 10.7 µM (active)
C[C@@H]1CCCCO[C@H](CN(C)S(=O)(=O)c2ccc(Cl)cc2)[C@H](C)CN([C@@H](C)CO)C(=O)c2cc(N(C)C)ccc2O1 | – | – | – | AC50 (Paired box protein Pax-8): 8.81 µM (active)
COC1C(CO)OC(n2c3c(Cl)cccc3c3c4c(c5c6cccc(Cl)c6[nH]c5c32)C(=O)NC4=O)C(O)C1O (stereo unspecified) | – | – | – | AC50 (Paired box protein Pax-8): 1.11 µM (active)
Cc1cc(C)c([N+](=O)[O-])cc1-c1ccc(/C=N/NC(=O)c2nonc2N)o1 | – | – | – | CC50 [3]: > 50 µM (active)
CCN(CC)c1ccc(/C=N/N2CCOCC2)c(O)c1 | 4.58 µM (active) | – | 20 µM (active) | IC50 [8]: 75.6 µM (active)
O=[N+]([O-])c1cc(S(=O)(=O)/N=C(/c2ccccc2)N2CCOCC2)ccc1Cl | 14.6 µM (active) | 0.714 µM (active) | – | –
N#Cc1cnn2c(=O)c3c([nH]c12)CCCC3 | – | – | – | AC50 (Cytochrome P450 2C9): 11.2 µM (inconclusive)
Cc1cc(C)c(C2C3=C(Nc4c2c(C)nn4-c2ccccn2)c2ccccc2C3=O)c(C)c1 (stereo unspecified) | – | – | – | EC50 [4]: 19.9 µM (active); EC50 [5]: 17 µM (active); EC50 (Streptokinase A): 22.2 µM (active); EC50 [6]: > 120 µM (not active); EC50 [7]: 7.61 µM (active); EC50 (Streptococcus): 128 µM (active)
Nc1nc2nc[nH]c2c(=S)[nH]1 [THIOGUANINE] | – | – | – | AC50 (Paired box protein Pax-8): 1.18 µM (active)
